Results published in PubChem BioAssay AID2060909 (Molecular Pharmacology Branch, DTP, NCI, 2025).

System: 362531-283-R-J2-PDC complex spheroid viability
Assay: Anticancer human tumor 362531-283-R-J2-PDC patient-derived colon adenocarcinoma cell line growth inhibition [RAS]
Conditions: for IC50: curve of first compound; for viability, T/C: stronger effect = lower value
Method in brief: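 Agents were tested in combination matrices in half-log decrements from a top concentration at or near clinical Cmax (10 microM if undetermined). Targets were multi-cell spheroids of tumour lines plus HUVEC and MSC stromal cells.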
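Also: spheroids exposed to the agents for 7 days before readout.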
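For viability, T/C in this document: luminescence viability as percent of DMSO vehicle control wells.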

CC(=O)OC12COC1CC(O)C1(C)C(=O)C(O)C3=C(C)C(OC(=O)C(O)C(NC(=O)OC(C)(C)C)c4ccccc4)CC(O)(C(OC(=O)c4ccccc4)C21)C3(C)C (stereo unspecified) + C=CC(=O)N1CCN(c2nc(OCC3CCCN3C)nc3c(F)c(-c4nc(N)cc(C)c4C(F)(F)F)c(Cl)cc23)C(C)C1
IC50 (second compound 0.00316 µM): 206 nM | IC50 (second compound 0.01 µM): 207 nM | IC50 (second compound 0.0316 µM): 212 nM | IC50 (second compound 0.1 µM): 211 nM | IC50 (second compound 0.316 µM): 194 nM | IC50 (second compound 1 µM): 219 nM | viability, T/C (second compound 0.00316 µM, first compound 0.0316 µM): 96.7% | viability, T/C (second compound 0.00316 µM, first compound 0.1 µM): 87.7% | viability, T/C (second compound 0.00316 µM, first compound 0.316 µM): 24.6% | viability, T/C (second compound 0.00316 µM, first compound 1 µM): 20.6% | viability, T/C (second compound 0.00316 µM, first compound 3.16 µM): 25.6% | viability, T/C (second compound 0.00316 µM, first compound 10 µM): 39.1% | viability, T/C (second compound 0.01 µM, first compound 0.0316 µM): 106% | viability, T/C (second compound 0.01 µM, first compound 0.1 µM): 87.8% | viability, T/C (second compound 0.01 µM, first compound 0.316 µM): 24.2% | viability, T/C (second compound 0.01 µM, first compound 1 µM): 22.8% | viability, T/C (second compound 0.01 µM, first compound 3.16 µM): 25.5% | viability, T/C (second compound 0.01 µM, first compound 10 µM): 39.8% | viability, T/C (second compound 0.0316 µM, first compound 0.0316 µM): 99.4% | viability, T/C (second compound 0.0316 µM, first compound 0.1 µM): 94.3% | viability, T/C (second compound 0.0316 µM, first compound 0.316 µM): 21.5% | viability, T/C (second compound 0.0316 µM, first compound 1 µM): 22.2% | viability, T/C (second compound 0.0316 µM, first compound 3.16 µM): 25.2% | viability, T/C (second compound 0.0316 µM, first compound 10 µM): 37.3% | viability, T/C (second compound 0.1 µM, first compound 0.0316 µM): 97.4% | viability, T/C (second compound 0.1 µM, first compound 0.1 µM): 89.1% | viability, T/C (second compound 0.1 µM, first compound 0.316 µM): 27% | viability, T/C (second compound 0.1 µM, first compound 1 µM): 20.1% | viability, T/C (second compound 0.1 µM, first compound 3.16 µM): 27.3% | viability, T/C (second compound 0.1 µM, first compound 10 µM): 40.2% | viability, T/C (second compound 0.316 µM, first compound 0.0316 µM): 107% | viability, T/C (second compound 0.316 µM, first compound 0.1 µM): 76.4% | viability, T/C (second compound 0.316 µM, first compound 0.316 µM): 25.3% | viability, T/C (second compound 0.316 µM, first compound 1 µM): 18% | viability, T/C (second compound 0.316 µM, first compound 3.16 µM): 34.6% | viability, T/C (second compound 0.316 µM, first compound 10 µM): 44.1% | viability, T/C (second compound 1 µM, first compound 0.0316 µM): 106% | viability, T/C (second compound 1 µM, first compound 0.1 µM): 86.4% | viability, T/C (second compound 1 µM, first compound 0.316 µM): 27.3% | viability, T/C (second compound 1 µM, first compound 1 µM): 23.4% | viability, T/C (second compound 1 µM, first compound 3.16 µM): 35.1% | viability, T/C (second compound 1 µM, first compound 10 µM): 45.5%

CCc1c2c(nc3ccc(O)cc13)-c1cc3c(c(=O)n1C2)COC(=O)[C@]3(O)CC + CCn1c(-c2cc(N3CCN(C)CC3)cnc2C(C)OC)c2c3cc(ccc31)-c1csc(n1)CC(NC(=O)C1CC1C)C(=O)N1CCCC(N1)C(=O)OCC(C)(C)C2
IC50 (second compound 0.000949 µM): 42.1 nM | IC50 (second compound 0.003 µM): 37.8 nM | IC50 (second compound 0.00949 µM): 41.4 nM | IC50 (second compound 0.03 µM): 35.8 nM | IC50 (second compound 0.0949 µM): 14.4 nM | IC50 (second compound 0.3 µM): < 0.949 nM | viability, T/C (second compound 0.000949 µM, first compound 0.000949 µM): 94.3% | viability, T/C (second compound 0.000949 µM, first compound 0.003 µM): 90.9% | viability, T/C (second compound 0.000949 µM, first compound 0.00949 µM): 80.9% | viability, T/C (second compound 0.000949 µM, first compound 0.03 µM): 61.4% | viability, T/C (second compound 0.000949 µM, first compound 0.0949 µM): 26.2% | viability, T/C (second compound 0.000949 µM, first compound 0.3 µM): 16.4% | viability, T/C (second compound 0.003 µM, first compound 0.000949 µM): 97.5% | viability, T/C (second compound 0.003 µM, first compound 0.003 µM): 99.7% | viability, T/C (second compound 0.003 µM, first compound 0.00949 µM): 75.1% | viability, T/C (second compound 0.003 µM, first compound 0.03 µM): 61.8% | viability, T/C (second compound 0.003 µM, first compound 0.0949 µM): 23.4% | viability, T/C (second compound 0.003 µM, first compound 0.3 µM): 19.2% | viability, T/C (second compound 0.00949 µM, first compound 0.000949 µM): 101% | viability, T/C (second compound 0.00949 µM, first compound 0.003 µM): 97.1% | viability, T/C (second compound 0.00949 µM, first compound 0.00949 µM): 74.4% | viability, T/C (second compound 0.00949 µM, first compound 0.03 µM): 63.6% | viability, T/C (second compound 0.00949 µM, first compound 0.0949 µM): 26.9% | viability, T/C (second compound 0.00949 µM, first compound 0.3 µM): 12.6% | viability, T/C (second compound 0.03 µM, first compound 0.000949 µM): 94.3% | viability, T/C (second compound 0.03 µM, first compound 0.003 µM): 89.1% | viability, T/C (second compound 0.03 µM, first compound 0.00949 µM): 69.4% | viability, T/C (second compound 0.03 µM, first compound 0.03 µM): 59.5% | viability, T/C (second compound 0.03 µM, first compound 0.0949 µM): 25.3% | viability, T/C (second compound 0.03 µM, first compound 0.3 µM): 7.44% | viability, T/C (second compound 0.0949 µM, first compound 0.000949 µM): 76.8% | viability, T/C (second compound 0.0949 µM, first compound 0.003 µM): 65.3% | viability, T/C (second compound 0.0949 µM, first compound 0.00949 µM): 61.4% | viability, T/C (second compound 0.0949 µM, first compound 0.03 µM): 33.8% | viability, T/C (second compound 0.0949 µM, first compound 0.0949 µM): 14.2% | viability, T/C (second compound 0.0949 µM, first compound 0.3 µM): 5.26% | viability, T/C (second compound 0.3 µM, first compound 0.000949 µM): 33.5% | viability, T/C (second compound 0.3 µM, first compound 0.003 µM): 45.4% | viability, T/C (second compound 0.3 µM, first compound 0.00949 µM): 17.2% | viability, T/C (second compound 0.3 µM, first compound 0.03 µM): 13.4% | viability, T/C (second compound 0.3 µM, first compound 0.0949 µM): 5.23% | viability, T/C (second compound 0.3 µM, first compound 0.3 µM): 2.69%

CC(=O)OC12COC1CC(O)C1(C)C(=O)C(O)C3=C(C)C(OC(=O)C(O)C(NC(=O)OC(C)(C)C)c4ccccc4)CC(O)(C(OC(=O)c4ccccc4)C21)C3(C)C (stereo unspecified) + CCn1c(-c2cc(N3CCN(C)CC3)cnc2C(C)OC)c2c3cc(ccc31)-c1csc(n1)CC(NC(=O)C1CC1C)C(=O)N1CCCC(N1)C(=O)OCC(C)(C)C2
IC50 (second compound 0.000949 µM): 214 nM | IC50 (second compound 0.003 µM): 215 nM | IC50 (second compound 0.00949 µM): 192 nM | IC50 (second compound 0.03 µM): 164 nM | IC50 (second compound 0.0949 µM): 137 nM | IC50 (second compound 0.3 µM): < 31.6 nM | viability, T/C (second compound 0.000949 µM, first compound 0.0316 µM): 92.9% | viability, T/C (second compound 0.000949 µM, first compound 0.1 µM): 95.2% | viability, T/C (second compound 0.000949 µM, first compound 0.316 µM): 27.5% | viability, T/C (second compound 0.000949 µM, first compound 1 µM): 16.7% | viability, T/C (second compound 0.000949 µM, first compound 3.16 µM): 18.1% | viability, T/C (second compound 0.000949 µM, first compound 10 µM): 31.9% | viability, T/C (second compound 0.003 µM, first compound 0.0316 µM): 103% | viability, T/C (second compound 0.003 µM, first compound 0.1 µM): 92.7% | viability, T/C (second compound 0.003 µM, first compound 0.316 µM): 28.7% | viability, T/C (second compound 0.003 µM, first compound 1 µM): 13.6% | viability, T/C (second compound 0.003 µM, first compound 3.16 µM): 19.1% | viability, T/C (second compound 0.003 µM, first compound 10 µM): 19.9% | viability, T/C (second compound 0.00949 µM, first compound 0.0316 µM): 94.2% | viability, T/C (second compound 0.00949 µM, first compound 0.1 µM): 91% | viability, T/C (second compound 0.00949 µM, first compound 0.316 µM): 18.8% | viability, T/C (second compound 0.00949 µM, first compound 1 µM): 12.9% | viability, T/C (second compound 0.00949 µM, first compound 3.16 µM): 9.58% | viability, T/C (second compound 0.00949 µM, first compound 10 µM): 15.8% | viability, T/C (second compound 0.03 µM, first compound 0.0316 µM): 76.8% | viability, T/C (second compound 0.03 µM, first compound 0.1 µM): 77.5% | viability, T/C (second compound 0.03 µM, first compound 0.316 µM): 14.2% | viability, T/C (second compound 0.03 µM, first compound 1 µM): 7.82% | viability, T/C (second compound 0.03 µM, first compound 3.16 µM): 8.32% | viability, T/C (second compound 0.03 µM, first compound 10 µM): 11.6% | viability, T/C (second compound 0.0949 µM, first compound 0.0316 µM): 68.7% | viability, T/C (second compound 0.0949 µM, first compound 0.1 µM): 65.5% | viability, T/C (second compound 0.0949 µM, first compound 0.316 µM): 9.07% | viability, T/C (second compound 0.0949 µM, first compound 1 µM): 7.86% | viability, T/C (second compound 0.0949 µM, first compound 3.16 µM): 8.53% | viability, T/C (second compound 0.0949 µM, first compound 10 µM): 7.69% | viability, T/C (second compound 0.3 µM, first compound 0.0316 µM): 43.2% | viability, T/C (second compound 0.3 µM, first compound 0.1 µM): 20.1% | viability, T/C (second compound 0.3 µM, first compound 0.316 µM): 7.36% | viability, T/C (second compound 0.3 µM, first compound 1 µM): 4.87% | viability, T/C (second compound 0.3 µM, first compound 3.16 µM): 5.33% | viability, T/C (second compound 0.3 µM, first compound 10 µM): 4.75%
